# Measured values from patent US9546200B2, “Peptide for protection of allergic respiratory disorders” (Board of Supervisors of Louisiana State University and …, priority 2011, dated 2017).
# Residues, ends and D or L forms follow the SMILES beside them.
# Tested on: foals
# Design: species or system horse
# Conditions: in vivo
# Experimental: Two days before the injection of the peptide-1, a foal along with the mare was brought from the pasture to a bedded stall of the LSU School of Veterinary Medicine. They were fed hay and concentrated horse chow (Horse Chow #200^R, Purina Mills, St. Louis, Mo.); water was provided ad libitum. A physical examination was conducted on the day of injection. The foal's body temperature, heart rate, respiratory rate, body weight, body score, sex, breed, age and general physical conditions were recorded. After the physical examination, 5 ml of blood was drawn from jugular vein to determine pre-immune antibody titer (control value) and CBC.
# Since the peptide-1 has not been tried in any animals, the first foal was used to test the injection method and dosage. A low dose of 0.1 mg/kg body weight of conjugated peptide-1 with KLH was used, but without an adjuvant to minimize any adverse reactions due to either a high dose of peptide-1 or adjuvant. This protocol allowed a determination of any reaction due to the conjugated peptide-1 alone. A subcutaneous route of administration was chosen to produce a consistent “slow and steady” absorption. The first injection was given on the left side of the neck after cleaning with alcohol. […] After the injection, 5 ml blood was collected weekly. A booster injection with the same dose and route was given on the right side of the neck on the 15th day following the initial injection. Weekly blood collections continued for 42 days. […] For the remaining foals, a new protocol was used in that an adjuvant was added to the injection and the booster injection was given on the 28th day after the initial injection.
# Immediately after injection (either the first injection or the booster), a small swelling (size 1″×0.5″) at the site of injection was observed. The foal was observed continuously for the first hour and later every hour for eight hours. The foal evinced pain upon touch at the injection site, but it was eating, nursing, and drinking within 15 minutes after injection. […] No sweating, fever, cough, seizure or difficulty in breathing was observed.
# The foal remained under close observation for another two days, when the swelling began to subside. On the third day, foal and mare were allowed to go to the pasture. A similar swelling occurred at the booster injection time also. Therefore, in the animal protocol, foals would be kept in the bedded stall with the mare for a week after injection to observe the foals closely. In addition, the protocol demanded that if the swollen area is more than 2.5″ in diameter and more than 0.5″ in thickness, hot water packs are to be applied to relieve pain and swelling. Veterinary medical care is to be consulted if the condition worsens. After one week in the stall, the Foal #2 was let out to pasture and continued to do well for the remainder of the experimental period of 57 days.
# The basic protocol is as described for Foal #2. However, before injecting the peptide, extra care was taken in cleaning the injection site by scrubbing the site with Septisol antiseptic foam (Septisol^R, Steris Corp., Ohio) and alcohol. […] There was a small swelling in this foal which lasted only for 24 hours, probably due to the adjuvant. The adjuvant has an oily consistency, which would facilitate slow absorption of the injected solution.
smiles,measurement,setting,value
CC[C@H](C)[C@H](NC(=O)[C@H](CCCCN)NC(=O)[C@H](CC(=O)O)NC(=O)[C@H](CCSC)NC(=O)[C@H](CC(C)C)NC(=O)[C@H](CCCCN)NC(=O)[C@H](CC(C)C)NC(=O)[C@@H](NC(=O)[C@H](CO)NC(=O)[C@H](CC(=O)O)NC(=O)[C@H](CCCCN)NC(=O)[C@@H](NC(=O)[C@H](CC(N)=O)NC(=O)[C@@H](N)CCCCN)[C@@H](C)O)[C@@H](C)CC)C(=O)N[C@@H](C)C(=O)N[C@@H](CCCCN)C(=O)N[C@@H](CO)C(=O)N1CCC[C@H]1C(=O)N[C@@H](CC(C)C)C(=O)N[C@@H](CS)C(=O)N[C@@H](C)C(=O)O [Peptide-1] (H-KNTKDSILKLMDKIAKSPLCA-OH),area of swelling at the injection site,,2.5″×2″
same,size of swelling at the site of injection,,1″×0.5″
same,thickness of swelling at the injection site,,0.5 ″
same,duration of swelling,"sc, 0.1 mg/kg",24 h
same,other adverse reaction,"sc, 0.1 mg/kg",no other adverse reaction
